According to patent US20140080114A1, “METHODS, KITS AND COMPOSITIONS FOR INACTIVATION OF VIRAL AGENTS IN WHOLE BLOOD AND RED BLOOD CELL CONCENTRATES” (APHIOS CORPORATION, priority 2012, published 2014):

Test system: bovine viral diarrhea virus (BVDV)
Test: Hypericin-luciferase inactivation of BVDV spiked into human red blood cell concentrate, titration of unwashed and washed samples (CPE, TCID50)
Format: cell-based
Settings: for Unwashed Titer / Combined VRF (Titer of unwashed RBC control − Titer of washed sample) / Unwashed VRF (Titer of RBC control − Titer of sample) / Washed Titer / Washed VRF (Titer of RBC control − Titer of sample): Table 1 (Example 1), hypericin low=40, high=200 μg/mL, luciferase low=0.8, high=4.0 μM; for Unwashed Titer: RBCC, RT 2 hours in the dark, luciferin 0.08 mM, ATP 0.8 mM
Method: This dose range had not been tested in the previous experiments. Ten different combinations of DMEM (—Ca++, —Mg++), RBCC, virus, hypericin, luciferin, adenosine triphosphate (ATP) and luciferase were prepared to all contain equivalent titers of BVDV calculated to be 6.48 log 10TCID50/mL (logs) based on the titer of the original virus stock. The concentrations of hypericin tested were 40, 80 and 120 μg/mL. Luciferase was tested at 0.16, 0.32 and 0.8 μM. Luciferin and ATP were present at 80 and 800 μM respectively.
The compounds were mixed and incubated at RT for 2 hours in the dark followed by titration of unwashed and washed samples as previously described. Washing rows of wells with dilutions 1 and 2 was performed 2 days post-infection. Final CPEs were read 10 days post-infection.

With Cc1cc(O)c2c(=O)c3c(O)cc(O)c4c5c(O)cc(O)c6c(=O)c7c(O)cc(C)c8c1c2c(c34)c(c78)c65 [HH-LN, hypericin] the “Unwashed Titer” value was 3.10 log10TCID50/mL, the “Combined VRF (Titer of unwashed RBC control − Titer of washed sample)” value was 3.87 log TCID50 and the “Unwashed VRF (Titer of RBC control − Titer of sample)” value was 3.25 log TCID50. The “Washed Titer” value was 2.48 log10TCID50/mL and the “Washed VRF (Titer of RBC control − Titer of sample)” value was 1.50 log TCID50.
In the case of Cc1cc(O)c2c(=O)c3c(O)cc(O)c4c5c(O)cc(O)c6c(=O)c7c(O)cc(C)c8c1c2c(c34)c(c78)c65 [hypericin, reference compound], the “optimal dose of hypericin” value (with different doses of luciferase, for BVDV) is reported as 40 µg/mL.
Cc1cc(O)c2c(=O)c3c(O)cc(O)c4c5c(O)cc(O)c6c(=O)c7c(O)cc(C)c8c1c2c(c34)c(c78)c65 [HL-LN, hypericin] was tested, and the “Unwashed Titer” value was 3.48 log10TCID50/mL, the “Combined VRF (Titer of unwashed RBC control − Titer of washed sample)” value was over 4.01 log TCID50 and the “Unwashed VRF (Titer of RBC control − Titer of sample)” value was 2.87 log TCID50. For the same compound, the “Washed Titer” value was under 2.34 log10TCID50/mL and the “Washed VRF (Titer of RBC control − Titer of sample)” value was over 1.64 log TCID50.
